Test results from a melting point compilation (Tetko et al.; mined from patent text by program, amines drawn as free bases though some values may be those of a salt).

| Compound | melting point [°C] |
| --- | --- |
| O=C(NCC1CCN(C(=O)OCc2ccccc2)CC1)c1ccc(O)cc1 | 122 to 123 |
| Cc1cc(I)cc(C=O)c1N | 134 |
| COc1ccc(NC(=O)C(=O)c2c3n(c4ccccc24)CCNCC3)cc1Cl | 221 to 223 |
| CSC(=S)NCc1c[nH]c2ccccc12 | 132 to 133 |
| Cc1nc2ccccc2nc1C(=O)OCCO | 146 to 148 |
| Cc1c(-c2cccc(C(F)(F)F)c2)oc2c(-c3ccc(F)cc3)c(-c3ccc(S(C)(=O)=O)cc3)nn12 | 194 to 195 |
| CCOC(=O)C(=O)Nc1cc(NC(C)=O)ccc1O | > 300 |
| CCCCN1C(=O)c2cncnc2N(C(=O)CN2CCOCC2)c2ccccc21 | 127 to 128 |
| CCCC[C@@H](C)C(C(=O)O)C(=O)O | 123 |
| Cc1csc2nc(N3CCC(C(=O)O)CC3)nc(NCc3ccc(F)cc3)c12 | 279 |
| Nc1ncc(Br)cc1O | 195 to 197 |
| O=C1CC2(CCCC2)C(O)C(=O)N1CCCCN1CCN(c2ncccn2)CC1 (stereo not given) | 110 |
| CC1(C)OC(=O)C(OC2CCCCC2)=C1c1ccc(S(C)(=O)=O)cc1 | 143 to 144 |
| CCOC(=O)c1cc(-c2cc(C)on2)[nH]n1 | 149 to 151 |
| CC1=C(C(=O)OC(C)C)C(c2cccc([N+](=O)[O-])c2)n2c(cc(=O)n2C(=O)OC(C)C)N1 (stereo not given) | 162 to 164 |
| COc1ccc(Nc2c([N+](=O)[O-])ccc(Cl)c2C(=O)O)cc1Cl | 222 to 228 |
| CC(C)(C)C(=O)COc1nn(CC#N)c(-c2ccc(S(C)(=O)=O)cc2)c1-c1ccc(F)cc1 | 156 to 159 |
| CCn1c2ccccc2c2cc(N(c3ccccc3)c3ccc(-c4ccc(N(c5ccccc5)c5ccc6c(c5)c5ccccc5n6CC)cc4)cc3)ccc21 | 250 to 252 |
| O=C(O)CCSSc1ccc([N+](=O)[O-])cc1 | 98 to 100 |
| CC(C)(O)COc1ccc(/C=C/C(=O)O)c(Oc2ncc(C(F)(F)F)cc2Cl)c1 | 126 to 128 |
| CC(O)(C(N)=O)c1ccc(OS(=O)(=O)C(F)(F)F)cc1 (stereo not given) | 105 to 107 |
| CC1(C2CCCC2)Cc2cc(OC3=C(O)C(=O)NC3=O)c(Cl)c(Cl)c2C1=O (stereo not given) | 181 to 183 |
| O=C1c2ccccc2C(=O)N1CC(=O)N1c2ccccc2N(Cc2ccc3ccccc3n2)C(=O)[C@H]2CCC[C@H]21 (relative stereo) | 258 to 260 |
| CCCCCC(O)C=Cn1c(=O)n(CCN2CCN(c3ccccc3OC)CC2)c(=O)c2ccccc21 (stereo not given) | 118 to 119 |

| Compound | melting point [°C] |
| --- | --- |
| CNS(=O)(=O)c1cnc2c(OC)c(OC)c(OC)cc2c1O | 254 to 255 |
| CCOC(=O)NC(=O)C(C#N)=CNc1ccc(Cl)cc1 | 177 to 183 |
| CCOc1nn(-c2ccc(C(F)(F)F)cn2)cc1CCCOc1cccc(CCC(=O)O)c1 | 88 to 89 |
| Cc1sc2c(c1C)C(c1ccc(Cl)cc1)=NC(N)c1nnc(C)n1-2 (stereo not given) | 192 to 197 |
| C[C@H]1C[C@H](OC(=O)C(C)(C)Oc2ccc(CCNC(=O)c3ccc(Cl)cc3)cc2)CC(C)(C)C1 (relative stereo) | 100 |
| CCNC(=S)NS(=O)(=O)c1cnccc1NC1CCCCCCC1 | 196 to 198 |
| CCC(=O)Nc1cccc(NC(=O)C=C(C)OC)c1 | 155 |
| CC(C)[C@H](NCCC#N)C(=O)O | 245 to 250 |
| CC(C)(C#N)CCCCOc1cc(-c2ccccc2)cc(-c2ccccc2)n1 | 71 |
| CCOC(=O)c1cnc(S(=O)(=O)Cc2ccccc2)n1-c1c(CC)cccc1CC | 62 to 66 |
| CCN1CC=C(c2ccc(Nc3ncc4ccc(-c5ccccc5N(C)S(C)(=O)=O)n4n3)c(OC)c2)CC1 | 121 to 123 |
| O=C1c2cc(OCc3ccccc3)ccc2OCC1Oc1cccnc1 (stereo not given) | 133 to 134 |
| O=Cc1cc2c(cc1O)CCO2 | 102 to 104 |
| CCc1c2cccccc-2[nH]c1=O | 166 to 171 |
| Cc1oc(Cc2ccccc2)c(C(=O)c2cc(C(C)C)c(O)c(C(C)C)c2)c1C | 138 |
| C=C1C(=O)CCC(C)(C)C1=O | 115 to 116 |
| NC(=O)CN1CC(OCc2ccccc2)=CC1=O | 174 to 176 |
| CC(=O)c1c(O)cccc1OCC(O)COc1ccc(F)cc1 (stereo not given) | 111 to 113 |
| CC(C)(C)c1ccc(NC(=O)NCc2ccc3c(c2)CN(C2CCC(=O)NC2=O)C3=O)cc1 (stereo not given) | 254 to 256 |
| O=C(Nc1ccc(S(=O)(=O)N2CCOCC2)cc1)c1cc(N2CCOCC2)ccc1[N+](=O)[O-] | 252 |
| Cc1nc(-c2cccc(-c3nc4sccn4c3-c3ccnc(N[C@@H]4CCCNC4)n3)c2)no1 | 203 to 207 |
| CN(C)C1(Cc2ccccc2)CCC(c2[nH]c3ccccc3c2Cc2ccccc2)CC1 (stereo not given) | 140 to 143 |
| Nc1cccc(-c2ccc(OC3CN(Cc4ccccn4)C3)c3ccccc23)n1 | 97 to 120 |
| c1cncc(N=C2SCC3Cc4ccccc4N23)c1 (racemic) | 131 |

| Compound | melting point [°C] |
| --- | --- |
| O=C1Nc2ccccc2C2=NC(CN3CCN(c4ccccc4)CC3)CN12 (stereo not given) | 257 to 258 |
| COC(=O)c1cncn1C1c2ccccc2C(Br)(Br)C1(C)C (stereo not given) | 138 |
| Cc1cccc(NC(=O)NCC(=O)N2[C@@H](C(=O)NC(C)(C)C)CC[C@H]2c2ccccc2)c1 (racemic) | 169 |
| CC(C)C(C)(C)C(O)C(Cc1ccc(Cl)cc1)n1cncn1 (stereo not given) | 106 |
| COc1cccc2c1CCn1cc(-c3ccccc3)nc1C2OC1CCN(C)CC1 (stereo not given) | 73 |
| COC(=O)c1ccc(CC(C)NCC(O)c2cccc(Cl)c2)cc1 (stereo not given) | 94 to 96 |
| O=C(O)c1cnn2c(-c3cccc(C(F)(F)F)c3)ccnc12 | 248 to 250 |
| CCOC(=O)C=CN1CCCC1 | 37.5 to 39.5 |
| COC(=O)c1cccc(-n2cccc2)n1 | 61 |
| COc1cc2c(cc1OC)C1=C(C#N)SCCC(=O)N1CC2 | 192 to 194 |
| Brc1ccc2c(c1)C1(OCCCO1)C1=NCCCN12 | 145 to 149 |
| COc1ncnc2c1C(c1cccc([N+](=O)[O-])c1)C(C(=O)OC(C)C)=C(C)N2 (stereo not given) | 212 to 213 |
| OCC1OC(n2cnc3c(NCc4ccc5ccc6cccc7ccc4c5c67)ncnc32)C(O)C1O (stereo not given) | 144 |
| Cc1ccc2cccc(OCC(=O)c3ccc(Cl)cc3)c2n1 | 112 to 113 |
| CC(=O)Oc1ccc2cc(NCCCCNC(=O)OC(C)(C)C)c(=O)oc2c1 | 120 |
| COc1ccc(-c2nn(C(C)C)c(=O)c(C(N)=O)c2-c2ccc(OC)cc2)cc1 | 165 to 166 |
| Cc1cc(N2CC=C(C(N)=O)CC2)c2cccc(Br)c2n1 | 225 to 227 |
| CCN(CC)CCOc1ccc2cc3ccc(OCCN(CC)CC)cc3nc2c1 | 94 to 95 |
| CCCCc1oc2ccccc2c1C(=O)NCc1ccc2c(-c3ccc(OC)cc3)c(OC(Cc3ccccc3)C(=O)OC)ccc2c1 (stereo not given) | 103 to 105 |
| Cc1ccc(-c2cc(OCC(=O)N3CCOCC3)c3c(C(F)(F)F)cccc3n2)cc1 | 172 |
| COC(=O)CC[C@H](NC(=O)c1c[nH]c(CCC2CNc3nc(NC(=O)C(C)(C)C)nc(O)c3C2)n1)C(=O)OC (stereo not given in full) | 129 to 131 |
| CSc1nccc(C(C#N)C(=O)c2ccccc2)n1 (stereo not given) | 163 to 164 |
